Laboratory results taken from patent US20100178652A1, “Materials and Methods for the Detection, Prevention and Treatment of Autoimmune Disease” (priority 2007, published 2010).

Key:
[1] = test system: STAT5 phosphorylation; conditions: mature monocytes and macrophages; blocking GM-CSF signaling; ref [20]; cited from earlier work
[2] = test system: STAT5 phosphorylation; test: Persistence of STAT5 phosphorylation in mature myeloid cells when GM-CSF signaling is blocked; format: cell-based, NOD mouse; conditions: NOD mature myeloid cells, once activated; inhibition of GM-CSF signaling
Excerpt: Flow cytometric analysis of fluorescently-conjugated antibody surface and intracellular binding will be used to phenotypically identify myeloid cells and quantify the level of STAT5 tyrosine phosphorylation in cells ex vivo and after in vitro stimulation. Cells will be first labeled with anti-CD11b and anti-IgM antibody conjugates to identify monocytes and macrophages (CD11b+/IgM−) in the sample, then fixed with 2% (v/v Cf) formaldehyde and permeabilized using 0.5% saponin in a high protein, isotonic buffer. Intracellular staining of STAT5Ptyr will be done using APC-conjugated anti-STAT5Ptyr specific monoclonal antibodies (Upstate Biotech, conjugated using Prozyme APC-labeling kit). This method is well developed in our laboratory and has shown good consistency in current studies. We will analyze the percentage of positive myeloid cells (% STATPtyr+/CD11b+) as well as mean fluorescence (MF) to assess both the number of cells in the myeloid population with activated STAT5 and the relative amount of phosphorylated STAT5 per cells after treatment. After flow analysis, the labeled cells are centrifuged onto slides and stain them for chromatin (DAPI, Molecular Probes). These cells were used for imaging by deconvolution microscopy as previously described and then used 3 dimensional projection rotational analysis to identify subcellular location of activated STAT5.

N#C/C(=C/c1ccc(O)c(O)c1)C(=O)NCc1ccccc1 [AG490]
persistence of phosphorylated STAT5 [1]: does not affect | persistence of STAT5 phosphorylation [2]: not affected
